In patent US6908919B2, “Substituted polycyclic aryl and heteroaryl pyrazinones useful for selective inhibition of the coagulation cascade” (Pharmacia Corporation, priority 1999, dated 2005):

The molecules below were run against Human factor Xa (Homo sapiens, UniProt P00742) (assay: Xa Assay). Details: not given.
Assay type: biochemical
Design: purchased Enzyme Research Laboratories, South Bend Ind

Sequence of Human factor Xa (P00742 41-179 limits assumed): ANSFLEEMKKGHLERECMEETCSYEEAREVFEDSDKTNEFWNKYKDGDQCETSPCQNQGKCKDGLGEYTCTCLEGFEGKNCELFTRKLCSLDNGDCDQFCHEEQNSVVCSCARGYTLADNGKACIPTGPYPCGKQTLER
Sequence of Human factor Xa (P00742 235-488 limits assumed): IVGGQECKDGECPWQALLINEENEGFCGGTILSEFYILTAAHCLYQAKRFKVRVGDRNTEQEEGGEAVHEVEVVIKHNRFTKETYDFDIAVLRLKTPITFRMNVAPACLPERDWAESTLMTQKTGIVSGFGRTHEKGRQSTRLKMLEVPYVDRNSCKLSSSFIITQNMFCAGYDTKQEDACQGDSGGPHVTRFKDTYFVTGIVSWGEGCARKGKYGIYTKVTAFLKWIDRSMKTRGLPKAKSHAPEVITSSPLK

| Compound | % Inhibition Factor Xa (100 µM) [%] |
| --- | --- |
| O=C(Cn1c(-c2ccc(-c3ccccc3)cc2)c(Cl)nc(NCCc2cccc(Cl)c2)c1=O)NCCc1cccnc1 [Example E-0116] | 4 |

Same assay, conditions: at 30 µM

| Compound | % Inhibition Factor Xa (30 µM) [%] |
| --- | --- |
| N=C(N)c1ccc(CNC(=O)Cn2c(-c3ccsc3)c(Cl)nc(NCCc3cccc(Cl)c3)c2=O)cc1 [Example 1517-19] | 0 |
| CC(C)CCNc1nc(Cl)c(-c2ccccc2)n(CC(=O)NCc2ccc(C(=N)N)cc2)c1=O [Example 1517-40] | 0 |
| C[C@@H](C(=O)NCc1ccc(C(=N)N)cc1)n1c(-c2ccccc2)c(Cl)nc(NCCc2ccccc2)c1=O [Example 1517-15] | 0 |
| N=C(N)c1ccc(CNC(=O)Cn2c(-c3c(Cl)cccc3Cl)c(Cl)nc(NCCc3ccccc3)c2=O)cc1 [Example 1517-18] | 0 |
| N=C(N)c1ccc(CNC(=O)Cn2c(-c3cccc(N)c3)c(Cl)nc(NCCCN3CCCC3)c2=O)cc1 [1543-27] | 27 |

The next lines start with the values.

| % Inhibition Factor Xa (30 µM) [%] | Compound |
| --- | --- |
| 0 | C[C@H](C(=O)NCc1ccc(C(=N)N)cc1)n1c(-c2ccccc2)c(Cl)nc(NCCc2cccc(Cl)c2)c1=O [Example 1517-23] |
| 14 | N=C(N)c1ccc(CNC(=O)Cn2c(-c3cccc(N)c3)c(Cl)nc(NC3CCC3)c2=O)c(F)c1 [1543-39] |
| 0 | N=C(N)c1ccc(CNC(=O)Cn2c(-c3c(Cl)cccc3Cl)c(Cl)nc(NC3CCC3)c2=O)cc1 [Example 1517-12] |
| 12 | CN(C)CCNc1nc(Cl)c(-c2cccc(N)c2)n(CC(=O)NCc2ccc(C(=N)N)cc2)c1=O [1543-09] |
| 10 | CC(C)Nc1nc(Cl)c(-c2cccc(N)c2)n(CC(=O)NCc2ccc(C(=N)N)cc2F)c1=O [1543-40] |
| 27 | N=C(N)c1ccc(CNC(=O)Cn2c(-c3cccc(N)c3)c(Cl)nc(NCCCCN3CCCC3)c2=O)cc1 [1543-21] |

Same assay, conditions: at 30 µM inhibitor

| Compound | % Inhibition Factor Xa (30 µM) |
| --- | --- |
| N=C(N)c1ccc(CNC(=O)Cn2c(-c3ccsc3)c(Cl)nc(NC3CCC3)c2=O)cc1 [Example 1517-07] | 0% |
| CN(C)CCCNc1nc(Cl)c(-c2ccccc2)n(CC(=O)NCc2ccc(C(=N)N)cc2)c1=O [1507-47] | 19% |
| N=C(N)c1ccc(CNC(=O)Cn2c(-c3ccccc3)c(Cl)nc(NC3CCS(=O)(=O)C3)c2=O)cc1 (stereo not shown) [1507-36] | 0% |
| C[C@@H](C(=O)NCc1ccc(C(=N)N)cc1)n1c(-c2ccccc2)c(Cl)nc(NC2CCC2)c1=O [Example 1517-09] | 0% |
| N=C(N)c1ccc(CNC(=O)Cn2c(-c3cccc4ccccc34)c(Cl)nc(NCCc3ccccc3)c2=O)cc1 [Example 80] | 29% @ 30 |
| Cc1c(Cl)nc(NCc2ccccc2)c(=O)n1CC(=O)NCc1ccc(C(=N)N)cc1 [1471-1] | 10% |
| CC(C)Nc1nc(Cl)c(-c2cccc(C(=O)O)c2)n(CC(=O)NCc2ccc(C(=N)N)cc2)c1=O [Example 65] | 12% |
| N=C(N)c1ccc(CNC(=O)Cn2c(-c3ccccc3)c(Cl)nc(NCc3c(F)cccc3F)c2=O)cc1 [1512-43] | 9% |
| N=C(N)c1ccc(CNC(=O)Cn2c(-c3ccccc3)c(Cl)nc(NC3CCS(=O)(=O)C3)c2=O)cc1 (stereo not shown) [1512-19] | 3% |
| CC(C)Nc1nc(Cl)c(-c2cc(N)ccc2F)n(CC(=O)NCc2ccc(C(=N)N)cc2F)c1=O [Example 73] | 0% |
| N=C(N)c1ccc(CNC(=O)Cn2c(-c3ccccc3)c(Cl)nc(NCc3cc(F)c(F)c(F)c3)c2=O)cc1 [1512-32] | 5% |
| N=C(N)c1ccc(CNC(=O)Cn2c(-c3cccc(N)c3)cnc(NC3CCC3)c2=O)cc1 [Example 92] | 18% @ 30 |
| Cc1c(Cl)nc(NCCc2cccc(Cl)c2)c(=O)n1CC(=O)NCc1ccc(C(=N)N)cc1 [1471-6] | 14% |
| N=C(N)c1ccc(CNC(=O)Cn2c(-c3ccccc3O)c(Cl)nc(NC3CCC3)c2=O)cc1 [Example 66] | 0% |
| C[C@H](C(=O)NCc1ccc(C(=N)N)cc1)n1c(-c2ccccc2)c(Cl)nc(NCc2ccccc2)c1=O [Example 1517-05] | 0% |
| COC(=O)c1cccc(-c2c(Cl)nc(NC(C)C)c(=O)n2CC(=O)NCc2ccc(C(=N)N)cc2)c1 [Example 64] | 19% |

| Compound | % Inhibition Factor Xa (30 µM) |
| --- | --- |
| N=C(N)c1ccc(CNC(=O)Cn2c(-c3cccc(N)c3)c(Cl)nc(NCCc3ccccc3)c2=O)cc1 [Example 86] | 26% @ 30 |
| N=C(N)c1ccc(CNC(=O)Cn2c(-c3ccccc3)c(Cl)nc(NCCc3ccncc3)c2=O)cc1 [1471-13] | 0% |
| N=C(N)c1ccc(CNC(=O)Cn2c(-c3ccc(Cl)cc3)c(Cl)nc(NCCc3cccc(Cl)c3)c2=O)cc1 [1471-22] | 28% |
| N=C(N)c1ccc(CNC(=O)Cn2c(-c3ccc4c(c3)OCO4)c(Cl)nc(NCc3ccncc3)c2=O)cc1 [1471-43] | 18% |
| N=C(N)c1ccc(CNC(=O)Cn2c(-c3ccccc3)c(Cl)nc(NCCc3ccc(Cl)cc3)c2=O)cc1 [1471-10] | 45% |
| N=C(N)c1ccc(CNC(=O)Cn2c(-c3ccccc3)c(Cl)nc(NCc3ccccc3OC(F)(F)F)c2=O)cc1 [1512-42] | 1% |
| N=C(N)NC/C=C\CNC(=O)Cn1c(-c2ccccc2)cnc(NCCc2ccccc2)c1=O [Example 37] | 0% |
| N=C(N)c1ccc(CNC(=O)Cn2c(-c3ccccc3)c(Cl)nc(NC3CCC3)c2=O)cc1 [1507-21] | 23% |
| N=C(N)c1ccc(CNC(=O)Cn2c(-c3ccccc3)c(Cl)nc(NCCCCc3ccccc3)c2=O)cc1 [1507-43] | 21% |
| N=C(N)c1ccc(CNC(=O)Cn2c(-c3ccccc3)c(Cl)nc(NCc3cc(C(F)(F)F)ccc3F)c2=O)cc1 [1512-27] | 3% |
| CC1CCCC(Nc2nc(Cl)c(-c3ccccc3)n(CC(=O)NCc3ccc(C(=N)N)cc3)c2=O)C1C (stereo not shown) [1512-23] | 6% |
| N=C(N)c1ccc(CNC(=O)Cn2c(-c3ccccc3)c(Cl)nc(NCc3cc(F)ccc3F)c2=O)cc1 [1512-36] | 9% |
| CCOc1ccccc1CNc1nc(Cl)c(-c2ccccc2)n(CC(=O)NCc2ccc(C(=N)N)cc2)c1=O [1512-11] | 5% |
| CCc1c(Cl)nc(NCCc2ccc(Cl)cc2)c(=O)n1CC(=O)NCc1ccc(C(=N)N)cc1 [1471-58] | 0% |
| N=C(N)c1ccc(CNC(=O)Cn2c(-c3cccc(Cl)c3)c(Cl)nc(NCc3ccncc3)c2=O)cc1 [1471-27] | 16% |

More lines, now with the values ahead:

| % Inhibition Factor Xa (30 µM) | Compound |
| --- | --- |
| 17% | N=C(N)c1ccc(CNC(=O)Cn2c(-c3cccc(Cl)c3)c(Cl)nc(NCCc3ccccc3)c2=O)cc1 [1471-31] |
| 0% | N=C(N)c1ccc(CNC(=O)Cn2c(-c3ccsc3)c(Cl)nc(NCc3ccccc3)c2=O)cc1 [Example 1517-01] |
| 4% | N=C(N)c1ccc(CNC(=O)Cn2c(-c3ccccc3)c(Cl)nc(NCCCc3ccccc3)c2=O)cc1 [1512-06] |
| 24% | COc1ccc(-c2c(Cl)nc(NCCc3ccc(Cl)cc3)c(=O)n2CC(=O)NCc2ccc(C(=N)N)cc2)cc1 [1471-34] |
| 2% | CCc1c(Cl)nc(NCCc2ccccc2)c(=O)n1CC(=O)NCc1ccc(C(=N)N)cc1 [1471-63] |
| 25% | N=C(N)c1ccc(CNC(=O)Cn2c(-c3cccc(Cl)c3)c(Cl)nc(NCCc3cccnc3)c2=O)cc1 [1471-32] |
| 22% | N=C(N)c1ccc(CNC(=O)Cn2c(-c3ccc4c(c3)OCO4)c(Cl)nc(NCCc3ccccc3)c2=O)cc1 [1471-47] |
| 0% | CSCC(C(=O)NCc1ccc(C(=N)N)cc1)n1c(-c2ccccc2)c(Cl)nc(NCc2ccccc2)c1=O (stereo not shown) [Example 1517-04] |
| 10% | CN1CCCC1CCNc1nc(Cl)c(-c2ccccc2)n(CC(=O)NCc2ccc(C(=N)N)cc2)c1=O (stereo not shown) [1512-46] |
| 4% | N=C(N)c1ccc(CNC(=O)Cn2c(-c3ccccc3)c(Cl)nc(NC3CCCCCC3)c2=O)cc1 [1507-29] |
| 4% | N=C(N)c1ccc(CNC(=O)Cn2c(-c3ccccc3)c(Cl)nc(NCc3cc(F)cc(F)c3)c2=O)cc1 [1512-39] |
| 9% | N=C(N)c1ccc(CNC(=O)Cn2c(-c3ccccc3)c(Cl)nc(NCCN3CCOCC3)c2=O)cc1 [1471-12] |
| 10% | N=C(N)c1ccc(CNC(=O)Cn2c(-c3ccccc3)c(Cl)nc(NCCCn3ccnc3)c2=O)cc1 [1507-05] |
| 26% | N=C(N)c1ccc(CNC(=O)Cn2c(-c3ccc(Cl)cc3)c(Cl)nc(NCCc3ccc(Cl)cc3)c2=O)cc1 [1471-18] |
| 10% | Cc1c(Cl)nc(NCCc2ccc(Cl)cc2)c(=O)n1CC(=O)NCc1ccc(C(=N)N)cc1 [1471-2] |
| 18% | N=C(N)c1ccc(CNC(=O)Cn2c(-c3ccccc3)c(Cl)nc(NC3CCCc4ccccc43)c2=O)cc1 (stereo not shown) [1507-16] |
| 4% | N=C(N)c1ccc(CNC(=O)Cn2c(-c3ccccc3)c(Cl)nc(NCc3cc(Cl)ccc3Cl)c2=O)cc1 [1512-35] |
| 22% @ 30 | N=C(N)c1ccc(CNC(=O)Cn2c(-c3ccccc3)c(Cl)nc(NCCc3ccncc3)c2=O)cc1 [Example 19] |
| 10% | CC(C)Nc1nc(Cl)c(-c2cccc(N)c2)n(CC(=O)NCCc2ccc(C(=N)N)cc2)c1=O [Example 62] |
| 0% | CC(C)Nc1nc(Cl)c(-c2cccc(N)c2)n(CC(=O)NCc2ccc(C(=N)N)c(F)c2)c1=O [Example 42] |
| 33% @ 30 | Cc1cccc(-c2c(Cl)nc(NCCc3ccccc3)c(=O)n2CC(=O)NCc2ccc(C(=N)N)cc2)c1 [Example 81] |
| 21% | N=C(N)c1ccc(CNC(=O)Cn2c(-c3ccc4c(c3)OCO4)c(Cl)nc(NCCc3cccc(Cl)c3)c2=O)cc1 [1471-46] |
| 0% | Cc1c(Cl)nc(NCCN2CCOCC2)c(=O)n1CC(=O)NCc1ccc(C(=N)N)cc1 [1471-4] |

Same assay, conditions: inhibitor at 100 µM

| % Inhibition Factor Xa (100 µM) [%] | Compound |
| --- | --- |
| 0 | O=C(Cn1c(-c2ccc(Cl)cc2)c(Cl)nc(NCCc2cccc(Cl)c2)c1=O)NCCc1ccncc1 [Example E-0027] |
